Data set [1] deals with T1, Serine/threonine-protein kinase LATS (Homo sapiens) (UniProt Q9NRM7+O95835). Briefly: Inhibition of LATS in human corneal endothelium cells assessed as induction of cell expansion by measuring cell density at 10 uM by Sytox orange dye based epifluorescence microscopy.
Data set [2] deals with T1, Serine/threonine-protein kinase LATS (Homo sapiens). Briefly: Inhibition of LATS in human limbal epithelial cells assessed as induction of limbal stem cell expansion by measuring expansion factor ratio at 10 uM measured after 2 weeks by p63alpha expression detection based immunohistochemistry relative to control. Details: scale not given: the % may be the effect or the level left.

The nature of data set [3]: Total drug level in cell pellets of human limbal stem cells by LC-MS analysis. The format is ADME.
Data set [4] can be described thus: Drug level in post wash cell pellets of human limbal stem cells by LC-MS analysis. The format is ADME.
The target of data set [5] is T2, Serine/threonine-protein kinase LATS1 (Homo sapiens, UniProt O95835).
T2 sequence (O95835 whole entry): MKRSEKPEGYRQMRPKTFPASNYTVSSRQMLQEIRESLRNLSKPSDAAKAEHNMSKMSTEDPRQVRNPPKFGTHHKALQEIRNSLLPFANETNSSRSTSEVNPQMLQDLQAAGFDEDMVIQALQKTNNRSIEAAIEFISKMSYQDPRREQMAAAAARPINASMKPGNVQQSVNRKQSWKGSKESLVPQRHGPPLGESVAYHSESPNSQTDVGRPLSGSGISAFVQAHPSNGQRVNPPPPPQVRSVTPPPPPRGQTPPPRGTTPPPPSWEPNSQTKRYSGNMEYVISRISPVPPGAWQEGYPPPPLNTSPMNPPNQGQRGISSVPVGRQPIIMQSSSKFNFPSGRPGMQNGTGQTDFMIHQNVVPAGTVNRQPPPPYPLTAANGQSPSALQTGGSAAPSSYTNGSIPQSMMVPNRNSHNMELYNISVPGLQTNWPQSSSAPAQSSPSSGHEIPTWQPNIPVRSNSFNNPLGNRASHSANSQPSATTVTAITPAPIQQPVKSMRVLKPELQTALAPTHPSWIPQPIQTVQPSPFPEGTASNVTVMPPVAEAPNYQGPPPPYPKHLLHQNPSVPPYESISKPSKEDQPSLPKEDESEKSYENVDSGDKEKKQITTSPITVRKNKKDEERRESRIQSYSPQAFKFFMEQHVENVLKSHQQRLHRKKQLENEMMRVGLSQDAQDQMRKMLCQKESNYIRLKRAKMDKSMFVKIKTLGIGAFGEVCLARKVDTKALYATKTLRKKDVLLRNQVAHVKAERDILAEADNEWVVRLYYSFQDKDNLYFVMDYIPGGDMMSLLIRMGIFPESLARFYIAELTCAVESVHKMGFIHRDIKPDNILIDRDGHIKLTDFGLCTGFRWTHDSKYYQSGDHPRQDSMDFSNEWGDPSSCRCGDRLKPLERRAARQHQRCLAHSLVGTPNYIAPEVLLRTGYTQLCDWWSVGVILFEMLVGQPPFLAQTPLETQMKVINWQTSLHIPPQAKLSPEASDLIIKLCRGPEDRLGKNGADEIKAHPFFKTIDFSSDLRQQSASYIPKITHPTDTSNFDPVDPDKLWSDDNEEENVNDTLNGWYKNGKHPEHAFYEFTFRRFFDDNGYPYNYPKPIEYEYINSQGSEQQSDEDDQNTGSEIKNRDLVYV
Briefly: Inhibition of human LATS1 kinase domain (589 to 1130 amino acids) incubated for 30 mins by HTRF assay. On the technique in general: Time-resolved FRET reads energy transfer from a long-lived donor to a nearby acceptor.

In general, IC50 refers to the concentration that inhibits the measured activity by half.

T1 sequence (Q9NRM7 whole entry, looked up, one chain of several): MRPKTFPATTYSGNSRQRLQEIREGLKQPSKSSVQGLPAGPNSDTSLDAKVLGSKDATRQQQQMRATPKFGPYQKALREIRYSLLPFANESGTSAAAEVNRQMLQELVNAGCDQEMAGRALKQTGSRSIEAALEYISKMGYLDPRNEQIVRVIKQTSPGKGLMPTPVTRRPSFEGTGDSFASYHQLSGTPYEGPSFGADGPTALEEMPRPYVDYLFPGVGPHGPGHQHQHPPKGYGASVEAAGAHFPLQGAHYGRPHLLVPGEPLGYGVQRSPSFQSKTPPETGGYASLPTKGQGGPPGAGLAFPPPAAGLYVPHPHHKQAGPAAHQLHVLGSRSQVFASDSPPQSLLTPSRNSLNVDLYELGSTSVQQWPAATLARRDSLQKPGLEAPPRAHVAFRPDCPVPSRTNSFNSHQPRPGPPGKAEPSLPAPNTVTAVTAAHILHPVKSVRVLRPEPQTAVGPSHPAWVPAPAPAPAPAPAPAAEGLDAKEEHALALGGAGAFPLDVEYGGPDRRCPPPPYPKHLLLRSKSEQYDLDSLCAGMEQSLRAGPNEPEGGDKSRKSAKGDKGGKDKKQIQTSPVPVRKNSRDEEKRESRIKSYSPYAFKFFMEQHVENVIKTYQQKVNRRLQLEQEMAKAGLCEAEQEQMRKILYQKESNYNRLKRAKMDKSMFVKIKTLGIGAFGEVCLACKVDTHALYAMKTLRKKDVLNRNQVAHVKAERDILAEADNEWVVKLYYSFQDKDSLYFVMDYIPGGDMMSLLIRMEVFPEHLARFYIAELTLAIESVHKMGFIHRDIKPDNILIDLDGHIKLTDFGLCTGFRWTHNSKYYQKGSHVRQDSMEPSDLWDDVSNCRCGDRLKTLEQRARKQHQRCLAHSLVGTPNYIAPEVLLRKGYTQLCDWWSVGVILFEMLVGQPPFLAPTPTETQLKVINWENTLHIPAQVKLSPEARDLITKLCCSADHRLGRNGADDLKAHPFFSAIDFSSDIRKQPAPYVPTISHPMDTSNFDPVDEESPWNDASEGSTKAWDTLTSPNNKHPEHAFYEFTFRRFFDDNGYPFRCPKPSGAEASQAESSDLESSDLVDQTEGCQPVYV

Regarding `FC(F)(F)C1CN(c2nc(-c3ccncc3)nc3cnccc23)CCN1` (stereo not given), the Activity in data set [1] is 2070 /mm2; in data set [2] it was 57 to 97%.

For `CC(C)N(C)c1nc(-c2ccncc2)nc2cnccc12`, the Drug uptake in data set [3] is 415 pg; in data set [4], 13.5 to 46.5 nM. In data set [1], the Activity was 3910 /mm2.

In data set [5], `CN(C)CCC(C)(C)Nc1nc(-c2ccncc2)nc2cnccc12` displayed an IC50 of 1 nM.

With `CCCNc1nc(-c2ccncc2)nc2cnccc12`, the Activity in data set [1] was 3270 /mm2; in data set [2], 57 to 97%.

`c1cc(-c2cc(NC3CCCC3)c3ccncc3n2)ccn1` came in with an IC50 in data set [5] of 7 nM.

Turning to `CCCNc1nc(-c2c[nH]nc2C(F)(F)F)nc2cnccc12`, the figures for the Activity in data set [1] and in data set [2] were 1890 /mm2 and 57 to 97%, respectively.

Consider `FC(F)(F)C1(Nc2nc(-c3ccncc3)cc3cnccc23)CC1`, for which the Activity in data set [1] is 2780 /mm2; in data set [2], 57 to 97%.

On to `FC(F)(F)C1(Nc2nc(-c3ccncc3)nc3cnccc23)CCC1`, for which the Activity in data set [1] was 3300 /mm2; in data set [2], 57 to 97%.

As for `CC(C)(CO)Nc1nc(-c2ccncc2)nc2cnccc12`, the Activity was 2500 /mm2 in data set [1] and 57 to 97% in data set [2].

Regarding `CC(C)(Nc1nc(-c2ccncc2Cl)nc2cnccc12)C(F)(F)F`, the Activity in data set [1] is 1180 /mm2; in data set [2] it was 57 to 97%.

For the molecule `O[C@H]1CCC[C@@H]1Nc1nc(-c2ccncc2)nc2cnccc12`, the Activity in data set [1] is 25 /mm2; in data set [2], 57 to 97%.

Turning to `CC(C)Nc1nc(-c2ccncc2)nc2cnccc12`, the Activity was 3380 /mm2 in data set [1] and 57 to 97% in data set [2].

For the molecule `CC1(C)CC(O)CCN1c1cc(-c2ccncc2Cl)nc2cnccc12` (stereo not given), in data set [5], the IC50 turned out to be 20 nM.

As to `c1cc(-c2nc(NC3CCCC3)c3ccncc3n2)ccn1`, the Activity was 1700 /mm2 in data set [1] and 57 to 97% in data set [2].

As to `O=C(O)CCCNc1nc(-c2ccncc2)nc2cnccc12`, in data set [5], the IC50 was more than 2500 nM.

In data set [5], `Cc1n[nH]c(C)c1-c1nc(NC(C)(C)C(F)(F)F)c2ccncc2n1` displayed an IC50 of 10 nM.

Take `CC1CCCC1Nc1nc(-c2ccncc2)nc2cnccc12` (stereo not given): the Activity in data set [1] is 1630 /mm2; in data set [2], 57 to 97%.

The record behind these values is ChEMBL document CHEMBL4420070, “6-6 Fused Bicyclic Heteroaryl Compounds and their Use as LATS Inhibitors” (2018).
